Results: patent US4069316A, “Method for producing antibiotic T-42082 and antibiotic T-42082” (Takeda Chemical Industries, Ltd., priority 1976, dated 1978)

Tested on: Eimeria tenella
Experiment: Experimental 3: anticoccidial effect in chicks inoculated with drug-resistant wild strain
Protocol: The following experiment was carried out with a wild strain resistant to the conventional anticoccidial drugs.
The oocysts, predominantly of Eimeria tenella, obtained from a wild strain were used to inoculate chicks at a rate of 10×10^5 sporulated oocysts per bird. […] The battery test procedure was repeated.

Compound: NC(=NN=Cc1ccc(Cl)cc1)NN=Cc1ccc(Cl)cc1 [Lobenidine]
- At end of experiment/At start of experiment (No. of birds) (33.0 ppm): 3/3
- Relative Weight gain (33.0 ppm): 26.4%
- The pathological change of caecum: birds scored + (33.0 ppm): 0
- The pathological change of caecum: birds scored ++ (33.0 ppm): 0
- The pathological change of caecum: birds scored +++ (33.0 ppm): 0
- The pathological change of caecum: birds scored ++++ (33.0 ppm): 3
- The pathological change of caecum: birds scored - (33.0 ppm): 0
- No. of blood drops/per bird (33.0 ppm, day 4): 2.3
- No. of blood drops/per bird (33.0 ppm, day 5): 9.3
- No. of deaths (33.0 ppm, day 5): 0
- No. of blood drops/per bird (33.0 ppm, day 6): 9.3
- No. of deaths (33.0 ppm, day 6): 0
- No. of blood drops/per bird (33.0 ppm, day 7): 6.0
- No. of deaths (33.0 ppm, day 7): 0
- No. of deaths (33.0 ppm, day 8): 0
- At end of experiment/At start of experiment (No. of birds) (66.0 ppm): 3/3
- Relative Weight gain (66.0 ppm): 53.4%
- The pathological change of caecum: birds scored + (66.0 ppm): 0
- The pathological change of caecum: birds scored ++ (66.0 ppm): 0
- The pathological change of caecum: birds scored +++ (66.0 ppm): 0
- The pathological change of caecum: birds scored ++++ (66.0 ppm): 3
- The pathological change of caecum: birds scored - (66.0 ppm): 0
- No. of blood drops/per bird (66.0 ppm, day 4): 0.6
- No. of blood drops/per bird (66.0 ppm, day 5): 8.0
- No. of deaths (66.0 ppm, day 5): 0
- No. of blood drops/per bird (66.0 ppm, day 6): 10.0
- No. of deaths (66.0 ppm, day 6): 0
- No. of blood drops/per bird (66.0 ppm, day 7): 4.6
- No. of deaths (66.0 ppm, day 7): 0
- No. of deaths (66.0 ppm, day 8): 0
